Laboratory results published in DBAASP.
Values after ≈ are worked out from the molar mass of the structure shown.

Experiments:
Experiment in all cases: ≥ marks a high value that may be exact or a test limit, other limits are often not marked, values filed in µg/mL are converted to µM
[1] = tested on: Pseudomonas aeruginosa ATCC 27853
[2] = tested on: Escherichia coli ATCC 25922
[3] = tested on: Staphylococcus aureus SH1000
[4] = tested on: Candida albicans ATCC 90028
[5] = tested on: Cryptococcus neoformans ATCC 208821
[6] = tested on: Acinetobacter baumannii ATCC 19606
[7] = tested on: Klebsiella pneumoniae ATCC 700603
[8] = tested on: Staphylococcus aureus ATCC 43300
[9] = tested on: Staphylococcus aureus ATCC 29213
Micrococcus luteus A270 = tested on: Micrococcus luteus A270
[10] = tested on: Serratia marcescens ATCC 4112
[11] = tested on: Staphylococcus epidermidis ATCC 12228
Candida albicans MDM8 = tested on: Candida albicans MDM8
[12] = tested on: Candida tropicalis IOC 4560
Escherichia coli SBS 363 = tested on: Escherichia coli SBS 363
[13] = tested on: Enterobacter cloacae beta-12
[14] = tested on: Bacillus megaterium ATCC 10778
[15] = tested on: Salmonella enterica subsp. enterica serovar Pullorum ATCC 7913
[16] = tested on: Bacillus subtilis CMCC 63501
[17] = tested on: Staphylococcus aureus ATCC 25923
[18] = tested on: Bacillus cereus CGMCC 1.932
Acinetobacter baumannii = tested on: Acinetobacter baumannii
Escherichia coli UB1005 = tested on: Escherichia coli UB1005
[19] = tested on: Salmonella enterica subsp. enterica serovar Typhimurium ATCC 14028
[20] = tested on: Listeria monocytogenes CGMCC 1.1075
Escherichia coli K88 = tested on: Escherichia coli K88
Escherichia coli K99 = tested on: Escherichia coli K99
[21] = tested on: Enterococcus faecalis ATCC 29212
[22] = tested on: Salmonella typhimurium ATCC 7731
Escherichia coli 078 = tested on: Escherichia coli 078
[23] = tested on: Pseudomonas aeruginosa PAO1
[24] = tested on: Bacillus subtilis ATCC 6633
[25] = tested on: Pseudomonas aeruginosa H1001

`CC(C)C[C@H](NC(=O)CN)C(=O)N[C@@H](CC(C)C)C(=O)N[C@@H](CCCCN)C(=O)N[C@@H](CC(C)C)C(=O)N[C@@H](CC(C)C)C(=O)N[C@@H](CCCCN)C(=O)N[C@@H](CCCCN)C(=O)N[C@@H](CC(C)C)C(=O)N[C@@H](CC(C)C)C(=O)N[C@@H](CCCCN)C(=O)N[C@@H](CC(C)C)C(=O)N[C@@H](CC(C)C)C(=O)N[C@@H](CCCCN)C(N)=O` [GLLKLLKKLLKLLK] showed an MIC [1] greater than 19 µM, an MIC [2] greater than 19 µM and an MIC [3] of no less than 33 µM. It also gave an MIC [4] of 12 µM (≈ 19.4 µg/mL), an MIC [5] of 1 µM (≈ 1.62 µg/mL) and an MIC [6] of 1 µM (≈ 1.62 µg/mL). It also gave an MIC [7] greater than 19 µM and an MIC [8] greater than 19 µM.
For `CC(C)C[C@H](NC(=O)[C@H](C)NC(=O)CNC(=O)[C@H](CC(C)C)NC(=O)[C@@H](N)Cc1ccccc1)C(=O)N[C@@H](Cc1c[nH]c2ccccc12)C(=O)N[C@@H](CCCCN)C(=O)N[C@H](C(=O)N[C@@H](C)C(=O)N[C@@H](CCCCN)C(=O)N[C@@H](CCCCN)C(=O)N[C@H](C(=O)N[C@@H](Cc1ccccc1)C(N)=O)C(C)C)C(C)C` [FLGALWKVAKKVF], the MIC [9] was 0.8 µM (≈ 1.2 µg/mL), the MIC (Micrococcus luteus A270) was 0.8 µM (≈ 1.2 µg/mL) and the MIC [10] was 0.2 µM (≈ 0.301 µg/mL). For the same compound, the MIC [11] was 6.3 µM (≈ 9.49 µg/mL), the MIC (Candida albicans MDM8) was 1.6 µM (≈ 2.41 µg/mL) and the MIC [12] was 0.8 µM (≈ 1.2 µg/mL). It also gave an MIC (Escherichia coli SBS 363) of 3.1 µM (≈ 4.67 µg/mL), an MIC [13] of 6.3 µM (≈ 9.49 µg/mL) and an MIC [14] of 0.8 µM (≈ 1.2 µg/mL).
Compound `CC(C)C[C@H](NC(=O)[C@H](C)NC(=O)CNC(=O)[C@H](CC(C)C)NC(=O)[C@@H](N)CCCCN)C(=O)N[C@@H](Cc1c[nH]c2ccccc12)C(=O)N[C@@H](CC(N)=O)C(=O)N[C@H](C(=O)N[C@@H](C)C(=O)N[C@@H](CCCCN)C(=O)N[C@@H](CO)C(=O)N[C@@H](CCCCN)C(=O)N[C@@H](Cc1ccccc1)C(N)=O)C(C)C` [KLGALWNVAKSKF] has an MIC [9] greater than 50 µM, an MIC (Micrococcus luteus A270) of 25 µM (≈ 36.5 µg/mL) and an MIC [10] of no less than 50 µM. It also gave an MIC [11] greater than 50 µM, an MIC (Candida albicans MDM8) of 12.5 µM (≈ 18.3 µg/mL) and an MIC [12] of 25 µM (≈ 36.5 µg/mL). The MIC (Escherichia coli SBS 363) was no less than 50 µM, the MIC [13] was no less than 50 µM and the MIC [14] was 6.3 µM (≈ 9.2 µg/mL).
In the case of `CC(C)C[C@H](NC(=O)[C@H](C)NC(=O)CNC(=O)[C@@H](NC(=O)[C@@H](NC(=O)[C@H](CCCCN)NC(=O)[C@H](CCCCN)NC(=O)[C@H](CC(C)C)NC(=O)[C@H](CC(C)C)NC(=O)[C@H](CCCCN)NC(=O)[C@H](CC(C)C)NC(=O)[C@H](CC(C)C)NC(=O)[C@@H](N)CCCCN)C(C)C)C(C)C)C(=O)NCC(N)=O` [KLLKLLKKVVGALG], the MIC [1] is reported as greater than 22 µM, the MIC [2] is reported as 11 µM (≈ 16.3 µg/mL) and the MIC [3] is reported as 10 µM (≈ 14.8 µg/mL). The MIC [4] was 22 µM (≈ 32.5 µg/mL), the MIC [5] was 11 µM (≈ 16.3 µg/mL) and the MIC [6] was 5 µM (≈ 7.39 µg/mL). For the same compound, the MIC [7] was 22 µM (≈ 32.5 µg/mL) and the MIC [8] was 22 µM (≈ 32.5 µg/mL).
With `C[C@H](NC(=O)[C@H](Cc1c[nH]c2ccccc12)NC(=O)[C@H](Cc1c[nH]c2ccccc12)NC(=O)[C@H](CCCN=C(N)N)NC(=O)[C@H](CCCN=C(N)N)NC(=O)[C@H](Cc1c[nH]c2ccccc12)NC(=O)[C@H](CCCN=C(N)N)NC(=O)[C@H](CCCN=C(N)N)NC(=O)[C@H](Cc1c[nH]c2ccccc12)NC(=O)[C@H](Cc1c[nH]c2ccccc12)NC(=O)CN)C(N)=O` [GWWRRWRRWWA] the MIC [15] was 2 µM (≈ 3.4 µg/mL), the MIC [16] was 0.5 µM (≈ 0.85 µg/mL) and the MIC [17] was 2 µM (≈ 3.4 µg/mL). It also gave an MIC [18] of 2 µM (≈ 3.4 µg/mL), an MIC [1] of 4 µM (≈ 6.8 µg/mL) and an MIC (Acinetobacter baumannii) of 1 µM (≈ 1.7 µg/mL). It also gave an MIC (Escherichia coli UB1005) of 2 µM (≈ 3.4 µg/mL), an MIC [19] of 4 µM (≈ 6.8 µg/mL) and an MIC [20] of 2 µM (≈ 3.4 µg/mL). For the same compound, the MIC (Escherichia coli K88) was 2 µM (≈ 3.4 µg/mL), the MIC (Escherichia coli K99) was 4 µM (≈ 6.8 µg/mL) and the MIC [21] was 4 µM (≈ 6.8 µg/mL). The MIC [11] was 2 µM (≈ 3.4 µg/mL), the MIC [22] was 4 µM (≈ 6.8 µg/mL) and the MIC (Escherichia coli 078) was 8 µM (≈ 13.6 µg/mL). For the same compound, the MIC [8] was 2 µM (≈ 3.4 µg/mL) and the MIC [23] was 2 µM (≈ 3.4 µg/mL).
In the case of `C[C@H](NC(=O)[C@H](CCCN=C(N)N)NC(=O)[C@H](Cc1c[nH]c2ccccc12)NC(=O)[C@H](CCCN=C(N)N)NC(=O)[C@H](Cc1c[nH]c2ccccc12)NC(=O)[C@H](Cc1c[nH]c2ccccc12)NC(=O)[C@H](Cc1c[nH]c2ccccc12)NC(=O)[C@H](CCCN=C(N)N)NC(=O)[C@H](Cc1c[nH]c2ccccc12)NC(=O)[C@@H](N)CCCN=C(N)N)C(N)=O` [RWRWWWRWRA], the MIC [15] is reported as 8 µM (≈ 13.2 µg/mL), the MIC [16] is reported as 2 µM (≈ 3.29 µg/mL) and the MIC [17] is reported as 4 µM (≈ 6.58 µg/mL). For the same compound, the MIC [18] was 16 µM (≈ 26.3 µg/mL), the MIC [1] was 8 µM (≈ 13.2 µg/mL) and the MIC (Acinetobacter baumannii) was 1 µM (≈ 1.64 µg/mL). It also gave an MIC (Escherichia coli UB1005) of 2 µM (≈ 3.29 µg/mL), an MIC [19] of 4 µM (≈ 6.58 µg/mL) and an MIC [20] of 1 µM (≈ 1.64 µg/mL). It also gave an MIC (Escherichia coli K88) of 2 µM (≈ 3.29 µg/mL), an MIC (Escherichia coli K99) of 2 µM (≈ 3.29 µg/mL) and an MIC [21] of 4 µM (≈ 6.58 µg/mL). The MIC [11] was 2 µM (≈ 3.29 µg/mL), the MIC [22] was 8 µM (≈ 13.2 µg/mL) and the MIC (Escherichia coli 078) was 2 µM (≈ 3.29 µg/mL). It also gave an MIC [8] of 2 µM (≈ 3.29 µg/mL) and an MIC [23] of 8 µM (≈ 13.2 µg/mL).
In the case of `CC(C)C[C@H](NC(=O)[C@H](CCCN=C(N)N)NC(=O)[C@H](Cc1c[nH]c2ccccc12)NC(=O)[C@H](CCCN=C(N)N)NC(=O)[C@H](Cc1c[nH]c2ccccc12)NC(=O)[C@H](Cc1c[nH]c2ccccc12)NC(=O)[C@H](Cc1c[nH]c2ccccc12)NC(=O)[C@H](CCCN=C(N)N)NC(=O)[C@H](Cc1c[nH]c2ccccc12)NC(=O)[C@H](CCCN=C(N)N)NC(=O)CN)C(N)=O` [GRWRWWWRWRL], the MIC [15] is reported as 2 µM (≈ 3.49 µg/mL), the MIC [16] is reported as 4 µM (≈ 6.97 µg/mL) and the MIC [17] is reported as 2 µM (≈ 3.49 µg/mL). It also gave an MIC [18] of 8 µM (≈ 13.9 µg/mL), an MIC [1] of 4 µM (≈ 6.97 µg/mL) and an MIC (Acinetobacter baumannii) of 1 µM (≈ 1.74 µg/mL). The MIC (Escherichia coli UB1005) was 2 µM (≈ 3.49 µg/mL), the MIC [19] was 4 µM (≈ 6.97 µg/mL) and the MIC [20] was 2 µM (≈ 3.49 µg/mL). It also gave an MIC (Escherichia coli K88) of 2 µM (≈ 3.49 µg/mL), an MIC (Escherichia coli K99) of 4 µM (≈ 6.97 µg/mL) and an MIC [21] greater than 32 µM. For the same compound, the MIC [11] was 2 µM (≈ 3.49 µg/mL), the MIC [22] was 4 µM (≈ 6.97 µg/mL) and the MIC (Escherichia coli 078) was 2 µM (≈ 3.49 µg/mL). For the same compound, the MIC [8] was 2 µM (≈ 3.49 µg/mL) and the MIC [23] was 4 µM (≈ 6.97 µg/mL).
For `CC(C)C[C@H](NC(=O)[C@H](C)NC(=O)CNC(=O)[C@H](CC(C)C)NC(=O)[C@@H](N)Cc1ccccc1)C(=O)N[C@@H](Cc1c[nH]c2ccccc12)C(=O)N[C@@H](CC(N)=O)C(=O)N[C@H](C(=O)N[C@@H](C)C(=O)N[C@@H](CCCCN)C(=O)N[C@@H](CO)C(=O)N[C@@H](CC(C)C)C(=O)N[C@@H](Cc1ccccc1)C(N)=O)C(C)C` [FLGALWNVAKSLF], the MIC [1] was greater than 50 µM, the MIC [9] was 0.8 µM (≈ 1.17 µg/mL) and the MIC (Micrococcus luteus A270) was 0.8 µM (≈ 1.17 µg/mL). For the same compound, the MIC [10] was 0.4 µM (≈ 0.586 µg/mL), the MIC [24] was 0.8 µM (≈ 1.17 µg/mL) and the MIC (Candida albicans MDM8) was 3.1 µM (≈ 4.54 µg/mL). It also gave an MIC [12] of 3.1 µM (≈ 4.54 µg/mL), an MIC (Escherichia coli SBS 363) of 0.8 µM (≈ 1.17 µg/mL) and an MIC [13] of no less than 50 µM. It also gave an MIC [14] of 3.1 µM (≈ 4.54 µg/mL).
For `CC(C)C[C@H](NC(=O)[C@H](Cc1ccc(O)cc1)NC(=O)[C@@H]1CCCN1C(=O)[C@@H]1CCCN1C(=O)[C@H](CCCCN)NC(=O)[C@H](CC(=O)O)NC(=O)[C@@H](N)C(C)C)C(=O)N1CCC[C@H]1C(=O)N[C@@H](CCCN=C(N)N)C(=O)N1CCC[C@H]1C(=O)N[C@@H](CCCN=C(N)N)C(=O)N1CCC[C@H]1C(=O)N1CCC[C@H]1C(=O)N[C@@H](CCCN=C(N)N)C(=O)N[C@@H](CCCN=C(N)N)C(=O)N[C@@H](CCCCN)C(=O)N[C@@H](Cc1ccc(O)cc1)C(=O)N[C@@H](CC(N)=O)C(=O)N[C@@H](CCCN=C(N)N)C(=O)NCC(=O)O` [VDKPPYLPRPRPPRRKYNRG], the MIC [25] was 0.0487 µM (≈ 0.12 µg/mL).
With `CC[C@H](C)[C@H](NC(=O)[C@H](CC(=O)O)NC(=O)[C@H](Cc1ccccc1)NC(=O)[C@H](CC(C)C)NC(=O)CN)C(=O)N[C@@H](CC(C)C)C(=O)N[C@@H](CCCCN)C(=O)N[C@@H](CCCCN)C(=O)N[C@@H](CC(C)C)C(=O)N[C@@H](CC(C)C)C(=O)N[C@@H](CCCCN)C(=O)N[C@@H](CC(C)C)C(=O)N[C@@H](CC(C)C)C(=O)N[C@@H](CCCCN)C(N)=O` [GLFDILKKLLKLLK] the MIC [3] was no less than 100 µM.
